Measurements: the NIST ThermoML archive (doi:10.1016/j.fluid.2013.06.021)

Experiment: xn = mol fraction of the nth substance listed
Conditions: 101 kPa, Liquid; for speed of sound: Sing-around technique in a fixed-path interferometer; for mass density: Vibrating tube method; for viscosity: Capillary tube (Ostwald / Ubbelohde) method

CCCCOCCO [2-butoxyethan-1-ol] + CC(C)O
Conditions	mass density [kg/m3]	speed of sound [m/s]	viscosity [mPa·s]
293.15 K, x1 = 0.0539	796.164	1178.8	–
293.15 K, x1 = 0.1088	805.962	1190.2	–
293.15 K, x1 = 0.1607	814.567	1200.9	–
293.15 K, x1 = 0.2041	821.305	1210	–
293.15 K, x1 = 0.2567	828.971	1220.4	–
293.15 K, x1 = 0.3095	836.163	1230.7	–
293.15 K, x1 = 0.4041	847.973	1247.7	–
293.15 K, x1 = 0.5041	859.135	1263.9	–
293.15 K, x1 = 0.6113	869.832	1279.6	–
293.15 K, x1 = 0.7078	878.523	1292.2	–
293.15 K, x1 = 0.8095	886.841	1304	–
293.15 K, x1 = 0.857	890.465	1309.2	–
293.15 K, x1 = 0.9069	894.11	1314.2	–
293.15 K, x1 = 0.9527	897.317	1318.8	–
298.15 K, x1 = 0.0539	791.98	1160.9	–
298.15 K, x1 = 0.054	–	–	2.105
298.15 K, x1 = 0.1088	801.77	1172.5	2.114
298.15 K, x1 = 0.1607	810.37	1183.5	2.132
298.15 K, x1 = 0.2041	817.11	1192.6	2.145
298.15 K, x1 = 0.2567	824.79	1203	2.166
298.15 K, x1 = 0.3095	831.99	1213.2	2.184
298.15 K, x1 = 0.4041	843.83	1230.4	2.247
298.15 K, x1 = 0.5041	855	1246.6	2.327
298.15 K, x1 = 0.6113	865.69	1262.2	2.427
298.15 K, x1 = 0.7078	874.37	1274.7	–
298.15 K, x1 = 0.7079	–	–	2.538
298.15 K, x1 = 0.8095	882.67	1286.7	2.648
298.15 K, x1 = 0.857	886.29	1291.8	2.714
298.15 K, x1 = 0.9069	889.93	1296.8	2.778
298.15 K, x1 = 0.9527	893.12	1301.5	2.838
303.15 K, x1 = 0.0539	787.87	1143.4	–
303.15 K, x1 = 0.054	–	–	1.803
303.15 K, x1 = 0.1088	797.64	1155.2	1.819
303.15 K, x1 = 0.1607	806.24	1166.2	1.847
303.15 K, x1 = 0.2041	812.99	1175.3	1.866
303.15 K, x1 = 0.2567	820.65	1185.7	1.889
303.15 K, x1 = 0.3095	827.86	1195.9	1.923
303.15 K, x1 = 0.4041	839.68	1213	1.988
303.15 K, x1 = 0.5041	850.85	1229.2	2.079
303.15 K, x1 = 0.6113	861.54	1244.9	2.194
303.15 K, x1 = 0.7078	870.2	1257.7	–
303.15 K, x1 = 0.7079	–	–	2.308
303.15 K, x1 = 0.8095	878.49	1269.7	2.427
303.15 K, x1 = 0.857	882.1	1274.8	2.487
303.15 K, x1 = 0.9069	885.74	1280	2.549
303.15 K, x1 = 0.9527	888.94	1284.7	2.604
308.15 K, x1 = 0.0539	783.58	1125.5	–
308.15 K, x1 = 0.054	–	–	1.576
308.15 K, x1 = 0.1088	793.36	1137.7	1.587
308.15 K, x1 = 0.1607	801.96	1148.9	1.606
308.15 K, x1 = 0.2041	808.71	1157.9	1.624
308.15 K, x1 = 0.2567	816.4	1168.5	1.654
308.15 K, x1 = 0.3095	823.61	1178.8	1.678
308.15 K, x1 = 0.4041	835.44	1195.9	1.734
308.15 K, x1 = 0.5041	846.62	1212.1	1.809
308.15 K, x1 = 0.6113	857.32	1228	1.886
308.15 K, x1 = 0.7078	865.98	1240.6	–
308.15 K, x1 = 0.7079	–	–	1.968
308.15 K, x1 = 0.8095	874.28	1252.6	2.056
308.15 K, x1 = 0.857	877.88	1257.8	2.101
308.15 K, x1 = 0.9069	881.52	1263	2.145
308.15 K, x1 = 0.9527	884.72	1267.7	2.188
313.15 K, x1 = 0.0539	778.94	1108	–
313.15 K, x1 = 0.1088	788.77	1120.2	–
313.15 K, x1 = 0.1607	797.4	1131.4	–
313.15 K, x1 = 0.2041	804.16	1140.5	–
313.15 K, x1 = 0.2567	811.87	1151.3	–
313.15 K, x1 = 0.3095	819.11	1161.5	–
313.15 K, x1 = 0.4041	830.99	1178.7	–
313.15 K, x1 = 0.5041	842.22	1195.1	–
313.15 K, x1 = 0.6113	852.97	1211.1	–
313.15 K, x1 = 0.7078	861.66	1223.7	–
313.15 K, x1 = 0.8095	870.01	1235.8	–
313.15 K, x1 = 0.857	873.63	1241	–
313.15 K, x1 = 0.9069	877.27	1246.2	–
313.15 K, x1 = 0.9527	880.47	1250.8	–
